In US10973933B2, “Nanoparticles for diagnosis and treatment of tumors” (GWANGJU INSTITUTE OF SCIENCE AND TECHNOLOGY, priority 2015, dated 2021):

Tests used:
[1] = Photothermal properties of solutions under 808 nm NIR laser; conditions: 1 W/cm^2, ICG 10 μg/ml
Protocol: 500 μl of each of the solutions was placed in a centrifuge tube and irradiated with an NIR laser beam at a power density of 1 W/cm^2 and temperature change of the solutions receiving the laser beam was measured in real time by an infrared (IR) thermal imaging system (FLIR SC-300, FLIR Systems Inc., Danderyd, Sweden).

SCC7 tumor [2] = type: in vivo
Protocol: 24 hours after injection, tumor sites of all of the mice were irradiated with a continuous wave NIR laser beam (808 nm, 1 W/cm^2, 10 minutes) for phototherapy, and real-time temperature increase during laser irradiation was monitored by an IR thermal camera (FIGS. 10a and 10b).
In-vivo phototherapy: The tumor-xenograft mice were produced in the same manner as described above. The mice, in which tumors had grown to a desired volume (about 100 mm^3), were divided into four groups, that is, a saline solution group, a free ICG group, a PB-BSA nanoparticle group, and PB-BSA-ICG nanoparticle group. According to the groups, each sample was injected into a vein of the corresponding mouse (administration of 2 mg/kg of ICG, administration of 20 mg/kg of PB).
24 hours after injection, the tumor of each of the mice was exposed to an 808 nm NIR laser beam (1 W/cm^2) for 10 minutes, real-time temperature change of the tumor region during laser treatment was monitored by an IR thermal imaging system. The size of the tumor after treatment was measured at a specific time point using a digital caliper.

SCC7 cells [3] = assay: Intracellular singlet oxygen generation with H2DCF-DA probe; type: cell-based; conditions: SCC7, after 808 nm laser irradiation
Protocol: Further, free ICG has photodynamic properties and can generate singlet oxygen (^1O2) when exposed to an 808 nm NIR laser beam. Generation of intracellular singlet oxygen (^1O2) was analyzed using 2′,7′-dichlorodihydrofluorescein diacetate (H2DCF-DA) dye as a reactive oxygen species (ROS) probe.

SCC7 tumor [4] = assay: In vivo and ex vivo NIR fluorescence bio-distribution (IVIS); design: species or system mice
Protocol: The same group of mice was investigated as to NIR fluorescence signals by an in vivo imaging system (IVIS).
The free ICG solution (2 mg/kg) was injected into other mice as a control group for IVIS imaging. […] Gradual reduction of the signals means that free ICG molecules were quickly discharged from the bodies of the mice (FIG. 8b).
In-vivo bio-distribution of the PB-BSA-ICG nanoparticles and free ICG was analyzed by optical fluorescence imaging. […] Fluorescence signals in the mice subjected to injection of free ICG (2 mg/kg) were also recorded at time intervals similar to those set forth above.
The mice were sacrificed 24 hours after injection, and fluorescence signals (liver, lung, spleen, heart, and kidney) from resected tumors and major organs were measured.

[5] = In vitro laser induced phototherapy, cell viability; type: cell-based; conditions: mouse, SCC7 cells, PB 80 μg/ml, ICG 10 μg/ml, read-out: cell viability without laser treatment
Protocol: (§1) Next, the cells were completely cleaned and fresh medium was added to each of the wells. Next, the cells were irradiated with an 808 nm NIR laser beam for 5 minutes.
(§2) After laser irradiation, the cells were further cultured for 12 hours, and cell viability was measured by WST-1 analysis.

SCC7 cells [6] = assay: as above; type: cell-based; conditions: Mus musculus, SCC-7, light or radiation study, 5 min, 808 nm, 1 W/cm^2, 5 minutes, PB 80 μg/ml, ICG 10 μg/ml, read-out: cell viability after NIR laser irradiation
Protocol: as §1, §2

[7] = repeated laser irradiation, 3 minutes per cycle
[8] = 808 nm, 1 W/cm^2, 10 minutes, 24 hours after injection

In the case of `CC1(C)C(/C=C/C=C/C=C/C=C2\N(CCCCS(=O)(=O)O)c3ccc4ccccc4c3C2(C)C)=[N+](CCCCS(=O)(=O)[O-])c2ccc3ccccc3c21` [free ICG, Indocyanine green], the temperature increase ([1]; laser irradiation for 5 minutes, 808 nm, PB 80 μg/ml) is reported as 10 °C, the “temperature increase, first cycle” value [1, 7] is reported as “about 10 °C” and the “temperature increase, second cycle” value [1, 7] is reported as “about 6 °C”. The “temperature increase, third cycle” value [1, 7] was 2.5 °C, the “average temperature increase of tumor” value (SCC7 tumor [2]; [8]) was “about 6 °C” and the final tumor temperature (SCC7 tumor [2]; [8]) was 42 °C. The “tumor response after laser treatment” value (SCC7 tumor [2]; monitored for 14 days, ICG 2 mg/kg, PB 20 mg/kg) was “did not exhibit meaningful tumor regression”, the “intracellular ^1O2 generation (green fluorescence of H2DCF-DA)” value (SCC7 cells [3]) was “intracellular green fluorescence signals were observed” and the “in vivo NIR fluorescence signal distribution” value (SCC7 tumor [4]; 3 hours after injection, 2 mg/kg) was “strong signals at liver sites”. For the same compound, the “ex vivo fluorescence signals of livers” value (SCC7 tumor [4]; 24 hours after injection) was “significantly high fluorescence signals”, the “ex vivo fluorescence signals of tumors” value (SCC7 tumor [4]; 24 hours after injection) was “low signals” and the viability at 24 h, 10 μg/ml [5] was about 100%. For the same compound, the viability at 10 µg/mL (SCC7 cells [6]) was 55%.
